Here are results for 25 compounds from ChEMBL document CHEMBL3400043, “Design, synthesis and biological evaluation of GY3-based derivatives for anti-type 2 diabetes activity” (Bioorg Med Chem Lett, 2015).

Data set [1] relates to HepG2. Briefly: Induction of glucose consumption in human HepG2 cells at 10^-5 M after 24 hrs by glucose oxidase method (reference value: 2 +/- 0.09 mM). Type of data set: functional.
Data set [2] has as its system HepG2. Briefly: Induction of glucose consumption in human HepG2 cells at 10^-5 M after 24 hrs by glucose oxidase method relative to control. Type of data set: functional.
Data set [3] addresses T1, Peroxisome proliferator-activated receptor gamma (Homo sapiens) (UniProt P37231).
T1 sequence (whole entry): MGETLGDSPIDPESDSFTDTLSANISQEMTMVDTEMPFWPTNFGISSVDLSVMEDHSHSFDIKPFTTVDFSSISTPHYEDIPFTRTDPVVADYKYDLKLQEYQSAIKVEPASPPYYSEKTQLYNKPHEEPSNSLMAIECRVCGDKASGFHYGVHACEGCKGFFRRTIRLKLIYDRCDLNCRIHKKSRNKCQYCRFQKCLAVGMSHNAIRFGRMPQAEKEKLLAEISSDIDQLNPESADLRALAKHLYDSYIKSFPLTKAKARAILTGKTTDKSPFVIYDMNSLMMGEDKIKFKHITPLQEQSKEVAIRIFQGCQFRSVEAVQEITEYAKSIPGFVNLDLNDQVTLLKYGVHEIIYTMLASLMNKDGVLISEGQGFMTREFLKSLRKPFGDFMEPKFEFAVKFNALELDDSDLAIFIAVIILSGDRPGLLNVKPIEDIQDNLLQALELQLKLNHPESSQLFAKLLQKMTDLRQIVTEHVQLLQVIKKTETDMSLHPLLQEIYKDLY
The data set can be described thus: Agonist activity at human PPARgamma expressed in U2OS cells coexpressing human RXR assessed as luciferase activity at 10 uM after 24 hrs by transactivation assay relative to control. Type of data set: cell-based.

Data set [4] deals with HepG2. The data set can be described thus: Induction of glucose consumption in human HepG2 cells at 10^-6 M after 24 hrs by glucose oxidase method relative to control. Format: functional.
Data set [5] relates to HepG2. The data set can be described thus: Induction of glucose consumption in human HepG2 cells at 10^-7 M after 24 hrs by glucose oxidase method relative to control. Type of data set: functional.
Data set [6] deals with Mus musculus. The data set can be described thus: Hypoglycemic effect in eight week old female db/db mouse assessed as reduction in blood glucose level at 30 mg/kg, intragastric for 1 week. Format: functional. The conditions noted are these: po, 168 h.
Data set [7] relates to Mus musculus. Briefly: Hypoglycemic effect in eight week old female db/db mouse assessed as reduction in blood glucose level at 30 mg/kg, intragastric for 3 weeks. Type of data set: functional. The settings on record: po, 504 h.
Data set [8] concerns Mus musculus. The data set can be described thus: Toxicity in eight week old female db/db mouse assessed as effect on body weight at 30 mg/kg, intragastric for 3 weeks. Format: organism-based. More on the design: dose 30 mg/kg, route intragastric. The settings on record: in vivo, po, 504 h.
The subject of data set [9] is Mus musculus. Briefly: Reduction in total cholesterol level in eight week old female db/db mouse at 30 mg/kg, intragastric for 3 weeks. Format: functional, organism-based. More on the design: dose 30 mg/kg.
Data set [10] has as its system HepG2. Briefly: Induction of glucose consumption in human HepG2 cells at 10^-3 M after 24 hrs by glucose oxidase method relative to control. Type of data set: functional.
For data set [11], the system named is HepG2. Briefly: Induction of glucose consumption in human HepG2 cells at 10^-3 M after 24 hrs by glucose oxidase method (reference value: 2 +/- 0.09 mM). Format: functional.
The subject of data set [12] is Mus musculus. The data set can be described thus: Hypoglycemic effect in eight week old female db/db mouse assessed as reduction in blood glucose level at 30 mg/kg, intragastric for 2 weeks. Type of data set: functional. The settings on record: po, 336 h.
For data set [13], the system named is Mus musculus. The data set can be described thus: Hypoglycemic effect in eight week old female db/db mouse assessed as reduction in fasting triglyceride level at 30 mg/kg, intragastric for 3 weeks. Type of data set: functional, organism-based. More on the design: dose 30 mg/kg.
In data set [14] the test system is Mus musculus. Briefly: Toxicity in eight week old female db/db mouse assessed as body weight increase at 30 mg/kg, intragastric for 3 weeks. More on the design: dose 30 mg/kg, route intragastric. Type of data set: organism-based. The conditions noted are these: in vivo, po, 504 h.

The term inhibition in vivo denotes the share of the control response that was lost under treatment.

The structures appear in SMILES notation. Activity calls are given as the source filed them. The calls are words filed in the database; no cut-off is given here.

Take `CN(CCOc1ccc(CC2SC(=O)NC2=O)cc1)c1ccccn1` (stereo not drawn) [ROSIGLITAZONE]: the Activity in the data set on HepG2 [1] is listed as 2.53 mM; with HepG2 [2] it was 26.5%.

In the case of `COc1ccc(C(=O)N2c3ccc(OCc4ccccc4)cc3[C@H](CC(=O)O)[C@H]2C)cc1`, the Activity in the data set with HepG2 [1] was 2.22 mM; in the data set on HepG2 [2], 10.8%. Besides, in data set [3], the Ratio turned out to be 2.14.

For the compound `C[C@@H]1[C@@H](CC(=O)O)c2cc(OCc3ccccc3)ccc2N1C(=O)c1ccc(C#N)cc1`, the Activity in the data set on HepG2 [1] was 2.26 mM; in the data set with HepG2 [2], 12.6%. In addition, the Ratio in data set [3] was 2.05.

On to `C[C@@H]1[C@@H](CC(=O)O)c2cc(OCc3ccccc3)ccc2N1C(=O)c1ccc(F)cc1`, for which the Activity with HepG2 [1] was 2.24 mM; with HepG2 [2], 11.6%. Moreover, in data set [3], the Ratio came out at 1.74.

For `C[C@@H]1[C@@H](CC(=O)O)c2cc(OCc3ccccc3)ccc2N1C(=O)c1ccccc1`, the Activity is 2.14 mM with HepG2 [1] and 6.9% with HepG2 [2]. Further, in data set [3], the Ratio is 2.05.

For the compound `COc1ccc(CC(=O)N2c3ccc(OCc4ccccc4)cc3[C@H](CC(=O)O)[C@H]2C)cc1OC`, the Activity was 2.2 mM in the data set on HepG2 [1] and 9.9% in the data set with HepG2 [2]. Besides, the Ratio in data set [3] was determined as 2.

In the case of `Cc1c(CCCC(=O)O)c2cc(OCc3ccccc3)ccc2n1S(=O)(=O)c1ccc(Cl)cc1`, the Activity is 2.78 mM with HepG2 [1]; 38.9% in the data set with HepG2 [2]; 15.3% with HepG2 [4]; 18.2% in the data set with HepG2 [5]; “Non-toxic” in the data set with Mus musculus [8]. The Ratio in data set [3] turned out to be 2.44. In addition, the inhibition in vivo at 30 mg/kg in the data set on Mus musculus [6] is over 25%; in the data set with Mus musculus [7], 13.9%. Moreover, in the data set on Mus musculus [9], the inhibition result was “Active”.

Turning to `C[C@@H]1[C@@H](CC(=O)O)c2cc(OCc3ccccc3)ccc2N1C(=O)c1ccc(C(F)(F)F)cc1`, the Activity was 2.2 mM with HepG2 [1] and 9.8% in the data set with HepG2 [2]. In addition, in [3], the Ratio is 1.72.

Consider `CC(Oc1ccc2c(c1)[C@H](CC(=O)O)[C@@H](C)N2C(=O)c1ccc(Cl)cc1)c1ccccc1` (stereo partly drawn), for which the values for the Activity in the data set with HepG2 [1] and with HepG2 [2] were 2.2 mM and 9.8%, respectively. The Ratio in data set [3] worked out at 1.66.

Regarding `CN(C)C(=N)NC(=N)N` [METFORMIN], the Activity with HepG2 [10] came out at 51%; in the data set on HepG2 [11], 3.03 mM.

With `C[C@@H]1[C@@H](CC(=O)O)c2cc(OCc3ccccc3)ccc2N1C(=O)c1ccncc1`, the Activity in the data set with HepG2 [1] was 2.46 mM; in the data set on HepG2 [2], 22.6%; in the data set with HepG2 [4] it was -4.6%; in the data set on HepG2 [5], -4.1%. For the same compound, in data set [3], the Ratio came to 1.73. Also, the inhibition in vivo at 30 mg/kg in the data set with Mus musculus [12] was over 30%; with Mus musculus [7], 14.9%. In addition, the inhibition entry in the data set on Mus musculus [13] is “Active”.

`C[C@@H]1[C@@H](CC(=O)O)c2cc(OCc3ccccc3)ccc2N1C(=O)Cc1ccc(Cl)cc1`: the Activity with HepG2 [1] was 2.35 mM; in the data set on HepG2 [2], 17%. Besides, in data set [3], the Ratio was 2.2.

In the case of `Cc1c(CCC(=O)O)c2cc(OCc3ccccc3)ccc2n1C(=O)c1ccc(Cl)cc1`, the Activity in the data set on HepG2 [1] is reported as 2.53 mM; with HepG2 [2], 26.1%; in the data set on HepG2 [4] it was 14.1%; in the data set on HepG2 [5], 19.2%; in the data set with Mus musculus [8], “Non-toxic”. For the same compound, in data set [3], the Ratio was determined as 2.72.

On to `Cc1c(CCCC(=O)O)c2cc(OCc3ccccc3)ccc2n1C(=O)c1ccc(Cl)cc1`, for which the Activity with HepG2 [1] was 2.55 mM; in the data set on HepG2 [2], 27.3%; with HepG2 [4] it was 8.3%; with HepG2 [5] it was 12.5%; with Mus musculus [8] it was “Non-toxic”. Besides, the Ratio in data set [3] is 3.28.

For the compound `CCc1ccc(CCOc2ccc(CC3SC(=O)NC3=O)cc2)nc1` (stereo not drawn) [PIOGLITAZONE], the inhibition in vivo at 30 mg/kg in the data set on Mus musculus [6] is over 25%; with Mus musculus [12] it was over 30%; in the data set on Mus musculus [7], 30.6%. For the same compound, the Activity in the data set on Mus musculus [14] came out at 16.3%. In addition, the inhibition entry in the data set with Mus musculus [13] was “Active”.

In the case of `Cc1c(CCC(=O)O)c2cc(OCc3ccccc3)ccc2n1S(=O)(=O)c1ccc(Cl)cc1`, the Activity worked out at 2.45 mM in the data set on HepG2 [1], 22.1% in the data set on HepG2 [2], 10.5% with HepG2 [4] and 17.7% in the data set with HepG2 [5]. Moreover, the Ratio in data set [3] was 2.48.

`C[C@@H]1[C@@H](CC(=O)O)c2cc(OCc3cccnc3)ccc2N1C(=O)c1ccc(Cl)cc1`: the Activity is 1.87 mM in the data set on HepG2 [1] and -6.7% in the data set on HepG2 [2]. The Ratio in [3] was 1.62.

Consider `C[C@H]1[C@@H](CC(=O)O)c2cc(OCc3ccccc3)ccc2N1C(=O)c1ccc(Cl)cc1`, for which the Activity with HepG2 [1] is on record as 2.01 mM; in the data set on HepG2 [2], 0.6%. Further, the Ratio in data set [3] was found to be 1.72.

For the compound `C[C@@H]1[C@@H](CC(=O)O)c2cc(OCc3ccccc3)ccc2N1C(=O)C12CC3CC(CC(C3)C1)C2`, the values for the Activity in the data set with HepG2 [1], with HepG2 [2] and in the data set on Mus musculus [8] were 2.1 mM, 4.8% and “Non-toxic”, respectively. Moreover, the Ratio in data set [3] is 1.63.

Regarding `C[C@@H]1[C@@H](CC(=O)O)c2cc(OCc3ccncc3)ccc2N1C(=O)c1ccc(Cl)cc1`, the Activity in the data set with HepG2 [1] is given as 1.7 mM; in the data set with HepG2 [2] it was -15.4%. In addition, the Ratio in data set [3] stood at 1.49.

Turning to `C[C@@H]1[C@@H](CC(=O)O)c2cc(OCc3ccccc3)ccc2N1S(=O)(=O)c1ccc(Cl)cc1`, the Activity with HepG2 [1] worked out at 2.33 mM; with HepG2 [2], 16.3%. For the same compound, in data set [3], the Ratio worked out at 2.37.

As to `C[C@@H]1[C@@H](CC(=O)O)c2cc(OCCCCc3ccccc3)ccc2N1C(=O)c1ccc(Cl)cc1`, the Activity with HepG2 [1] is listed as 1.98 mM; with HepG2 [2], -1.2%. Moreover, the Ratio in [3] was 1.81.

As for `C[C@@H]1[C@@H](CC(=O)O)c2cc(OCc3ccccc3)ccc2N1C(=O)c1ccc(Cl)cc1`, the values for the Activity with HepG2 [1] and in the data set on HepG2 [2] were 2.4 mM and 20%, respectively. The Ratio in data set [3] was 3.51.

Take `C[C@@H]1[C@@H](CC(=O)O)c2cc(OCCc3ccccc3)ccc2N1C(=O)c1ccc(Cl)cc1`: the values for the Activity with HepG2 [1] and in the data set with HepG2 [2] were 2.05 mM and 2.1%, respectively. Also, the Ratio in data set [3] was 2.

As for `Cc1c(CC(=O)O)c2cc(OCc3ccccc3)ccc2n1C(=O)c1ccc(Cl)cc1`, the Activity stood at 2.44 mM with HepG2 [1] and 21.9% in the data set with HepG2 [2]. Further, the Ratio in data set [3] was 3.82. Besides, the figures for the inhibition in vivo at 30 mg/kg with Mus musculus [6], with Mus musculus [12] and in the data set on Mus musculus [7] were over 25%, over 30% and 13.5%, respectively.
